# Experimental data as given in patent US8247211B2, “Glycopeptide antibiotics” (American Cyanamid Company, priority 2001, dated 2012).
# What was measured:
# Experiment in all cases: In vitro antibacterial evaluation: minimum inhibitory concentration (MIC), broth dilution method
# Assay type in all cases: cell-based
# Enterococcus sp. = settings: for MIC Enterococcus faecalis (ATCC 29212): strain ATCC 29212; for MIC Enterococcus faecalis (GC 4552): strain GC 4552
# Protocol: (§1) The minimum inhibitory concentration (MIC), the lowest concentration of the antibiotic which inhibits growth of the test organism, is determined by the broth dilution method using Muller-Hinton II […] (Baltimore Biological Laboratories) following the recommendations of the National Committee for Clinical Laboratory Standards [Methods for dilution antimicrobial susceptibility tests for bacteria that grow aerobically, approved standard M7-A2, National Committee for Clinical Laboratory Standards, Villanova, Pa].
# (§2) An inoculum level of 5×10^5 CFU/mL, and a range of antibiotic concentrations (64-0.06 μg/mL) is used. […] The test organisms include a spectrum of Gram-positive bacteria comprised of Staphylococcus sp., Streptococcus sp. and Enterococcus sp. These organisms include recent clinical isolates that are resistant to methicillin, penicillin and/or vancomycin.
# Escherichia coli = tested on: Escherichia coli
# Protocol: as §1, §2
# Staphylococcus sp. = settings: for MIC Coagulase Negative Staphylococcus (GC 4537): strain GC 4537; for MIC Coagulase Negative Staphylococcus (GC 4538): strain GC 4538; for MIC Coagulase Negative Staphylococcus (GC 4547): strain GC 4547
# Protocol: as §1, §2
# [1] = broth dilution, 18 hours at 35° C.
# [2] = strain SMITH GC 4536, broth dilution, 18 hours at 35° C.
# [3] = broth dilution, 5×10^5 CFU/mL, 18 hours at 35° C.
# [4] = 5×10^5 CFU/mL, 18 hours at 35° C.
Compound,MIC Enterococcus faecalis (ATCC 29212) (Enterococcus sp.) [µg/mL],MIC Enterococcus faecalis (GC 2242) (Enterococcus sp.; strain GC 2242) [µg/mL],MIC Enterococcus faecalis (GC 4552) (Enterococcus sp.) [µg/mL],MIC Escherichia coli (GC 4559) (Escherichia coli; strain GC 4559) [µg/mL],MIC Escherichia coli (GC 4560) (Escherichia coli; strain GC 4560) [µg/mL],MIC Staphylococcus aureus (ATCC 29213) (Staphylococcus sp.; [1]) [µg/mL],MIC Staphylococcus aureus (GC 1131) (Staphylococcus sp.; [1]) [µg/mL],MIC Staphylococcus aureus (GC 4535) (Staphylococcus sp.; [1]) [µg/mL],MIC Staphylococcus aureus SMITH (GC 4536) (Staphylococcus sp.; [1]) [µg/mL],MIC Coagulase Negative Staphylococcus (GC 4537) (Staphylococcus sp.) [µg/mL],MIC Coagulase Negative Staphylococcus (GC 4538) (Staphylococcus sp.) [µg/mL],MIC Coagulase Negative Staphylococcus (GC 4547) (Staphylococcus sp.) [µg/mL],MIC Staphylococcus aureus-SMITH (GC 4536) (Staphylococcus sp.; [2]) [µg/mL],MIC Coagulase Negative Staphylococcus (GC 4537) (Staphylococcus sp.; [1]) [µg/mL],MIC Coagulase Negative Staphylococcus (GC 4538) (Staphylococcus sp.; [1]) [µg/mL],MIC Coagulase Negative Staphylococcus (GC 4547) (Staphylococcus sp.; [1]) [µg/mL],also measured
"CCCCCC(=O)OCC1OC(Oc2ccc(CC3NC(=O)C(C(C)c4ccccc4)NC(=O)CNC(=O)C(CO)NC(=O)C(C(O)C4CNC(=N)N4C4OC(CO)C(O)C(O)C4O)NC(=O)C(C(O)C4CNC(=N)N4)NC3=O)cc2)C(O)C(O)C1OC1OC(CO)C(O)C(O)C1O (stereo not drawn) [Example 95a, Cyclo[glycyl-β-methylphenylalanyl-O-(6-O-hexanoyl-4-O-hexopyranosylhexopyranosyl)-tyrosyl-3-(2-iminoimidazolidin-4-yl)seryl-3-(3-hexopyranosyl-2-iminoimidazolidin-4-yl)-serylseryl]]",32,16,32,>64,2,4,4,8,4,8,4,4,4,,,,"MIC Enterococcus faecalis (GC 2242) (Enterococcus sp.; Enterococcus faecalis (GC 2242), broth dilution, 18 hours at 35° C.): 16 µg/mL"
CC(c1ccccc1)C1NC(=O)CNC(=O)C(CO)NC(=O)C(C(O)C2CNC(=N)N2C2OC(CO)C(O)C(O)C2O)NC(=O)C(C(O)C2CNC(=N)N2)NC(=O)C(Cc2ccc(OC3OC(COC(=O)Cc4ccccc4)C(OC4OC(CO)C(O)C(O)C4O)C(O)C3O)cc2)NC1=O (centres unmarked) [Example 98b],64,64,,,2,16,16,16,8,16,8,8,8,16,8,8,
"CC(c1ccccc1)C1NC(=O)CNC(=O)C(CO)NC(=O)C(C(O)C2CNC(=N)N2C2OC(CO)C(O)C(O)C2O)NC(=O)C(C(O)C2CNC(=N)N2)NC(=O)C(Cc2ccc(OC3OC(CO)C(OC4OC(COC(=O)Cc5ccccc5)C(O)C(O)C4O)C(O)C3O)cc2)NC1=O (stereo not drawn) [Example 98c, Cyclo[glycyl-β-methylphenylalanyl-O-[4-O-[6-O-(phenylacetyl)hexopyranosyl]hexopyranosyl]-tyrosyl-3-(2-iminoimidazolidin-4-yl)seryl-3-(3-hexopyranosyl-2-iminoimidazolidin-4-yl)-serylseryl]]",16,8,16,64,0.5,2,2,4,2,2,1,1,2,2,1,1,

# Second part, led by results:
MIC Enterococcus faecalis (ATCC 29212) (Enterococcus sp.) [µg/mL],MIC Enterococcus faecalis (GC 2242) (Enterococcus sp.; strain GC 2242) [µg/mL],MIC Enterococcus faecalis (GC 4552) (Enterococcus sp.) [µg/mL],MIC Escherichia coli (GC 4559) (Escherichia coli; strain GC 4559) [µg/mL],MIC Escherichia coli (GC 4560) (Escherichia coli; strain GC 4560) [µg/mL],MIC Staphylococcus aureus (ATCC 29213) (Staphylococcus sp.; [1]) [µg/mL],MIC Staphylococcus aureus (GC 1131) (Staphylococcus sp.; [1]) [µg/mL],MIC Staphylococcus aureus (GC 4535) (Staphylococcus sp.; [1]) [µg/mL],MIC Staphylococcus aureus SMITH (GC 4536) (Staphylococcus sp.; [1]) [µg/mL],MIC Coagulase Negative Staphylococcus (GC 4537) (Staphylococcus sp.) [µg/mL],MIC Coagulase Negative Staphylococcus (GC 4538) (Staphylococcus sp.) [µg/mL],MIC Coagulase Negative Staphylococcus (GC 4547) (Staphylococcus sp.) [µg/mL],MIC Staphylococcus aureus-SMITH (GC 4536) (Staphylococcus sp.; [2]) [µg/mL],MIC Coagulase Negative Staphylococcus (GC 4537) (Staphylococcus sp.; [1]) [µg/mL],MIC Coagulase Negative Staphylococcus (GC 4538) (Staphylococcus sp.; [1]) [µg/mL],MIC Coagulase Negative Staphylococcus (GC 4547) (Staphylococcus sp.; [1]) [µg/mL],Compound,also measured
>64,>64,>64,>64,2,>64,>64,>64,>64,>64,>64,>64,>64,>64,>64,>64,CCCCCCC(=O)OCC1OC(N2C(=N)NCC2C(O)C2NC(=O)C(C(O)C3CNC(=N)N3)NC(=O)C(Cc3ccc(OC4OC(CO)C(OC5OC(CO)C(O)C(O)C5O)C(O)C4O)cc3)NC(=O)C(C(C)c3ccccc3)NC(=O)CNC(=O)C(CO)NC2=O)C(O)C(O)C1O (centres unmarked) [Example 97],
8,4,16,>64,1,1,2,2,0.5,4,2,2,0.5,4,2,2,"CCCCCCC(=O)OCC1OC(Oc2ccc(CC3NC(=O)C(C(C)c4ccccc4)NC(=O)CNC(=O)C(CO)NC(=O)C(C(O)C4CNC(=N)N4C4OC(CO)C(O)C(O)C4O)NC(=O)C(C(O)C4CNC(=N)N4)NC3=O)cc2)C(O)C(O)C1OC1OC(CO)C(O)C(O)C1O (stereo not drawn) [Example 97a, Cyclo[glycyl-β-methylphenylalanyl-O-(6-O-heptanoyl-4-O-hexopyranosylhexopyranosyl)-tyrosyl-3-(2-iminoimidazolidin-4-yl)seryl-3-(3-hexopyranosyl-2-iminoimidazolidin-4-yl)-serylseryl]]",
,,,,,,,,,2,1,1,2,2,1,1,"CC(c1ccccc1)C1NC(=O)CNC(=O)C(CO)NC(=O)C(C(O)C2CNC(=N)N2C2OC(CO)C(O)C(O)C2O)NC(=O)C(C(O)C2CNC(=N)N2)NC(=O)C(Cc2ccc(OC3OC(COC(=O)CCC4CCCC4)C(OC4OC(CO)C(O)C(O)C4O)C(O)C3O)cc2)NC1=O (stereo not drawn) [Example 100b, Cyclo[glycyl-β-methylphenylalanyl-O-[6-O-(3-cyclopentylpropanoyl)-4-O-hexopyranosyl-hexopyranosyl]tyrosyl-3-(2-iminoimidazolidin-4-yl)seryl-3-(3-hexopyranosyl-2-iminoimidazolidin-4-yl)serylseryl]]",MIC Enterococccus faecalis (ATCC 29212) (Enterococcus sp.; [3]): 8 µg/mL; MIC Enterococccus faecalis (GC 4552) (Enterococcus sp.; [3]): 8 µg/mL; MIC Enterococcus faecalis (GC 2242) (Enterococcus sp.; [3]): 8 µg/mL; MIC Escherichia coli (GC 4560) (Escherichia coli; [4]): 0.5 µg/mL; MIC Staphylococcus aureus (ATCC 29213) (Staphylococcus sp.; strain ATCC 29213): 2 µg/mL; MIC Staphylococcus aureus (GC 1131) (Staphylococcus sp.; strain GC 1131): 2 µg/mL; MIC Staphylococcus aureus (GC 4535) (Staphylococcus sp.; strain GC 4535): 2 µg/mL; MIC Staphylococcus aureus-SMITH (GC 4536) (Staphylococcus sp.; strain GC 4536): 2 µg/mL
,,,,,,,,,1,1,1,1,1,1,1,"CC(c1ccccc1)C1NC(=O)CNC(=O)C(CO)NC(=O)C(C(O)C2CNC(=N)N2C2OC(CO)C(O)C(O)C2O)NC(=O)C(C(O)C2CNC(=N)N2)NC(=O)C(Cc2ccc(OC3OC(CO)C(OC4OC(COC(=O)CCC5CCCC5)C(O)C(O)C4O)C(O)C3O)cc2)NC1=O (stereo not drawn) [Example 100c, Cyclo[glycyl-β-methylphenylalanyl-O-[4-O-[6-O-(3-cyclopentylpropanoyl)hexopyranosyl]-hexopyranosyl]tyrosyl-3-(2-iminoimidazolidin-4-yl)seryl-3-(3-hexopyranosyl-2-iminoimidazolidin-4-yl)serylseryl]]",MIC Enterococccus faecalis (ATCC 29212) (Enterococcus sp.; [3]): 4 µg/mL; MIC Enterococccus faecalis (GC 4552) (Enterococcus sp.; [3]): 4 µg/mL; MIC Enterococcus faecalis (GC 2242) (Enterococcus sp.; [3]): 2 µg/mL; MIC Escherichia coli (GC 4559) (Escherichia coli; [4]): 32 µg/mL; MIC Escherichia coli (GC 4560) (Escherichia coli; [4]): 0.5 µg/mL; MIC Staphylococcus aureus (ATCC 29213) (Staphylococcus sp.; strain ATCC 29213): 1 µg/mL; MIC Staphylococcus aureus (GC 1131) (Staphylococcus sp.; strain GC 1131): 1 µg/mL; MIC Staphylococcus aureus (GC 4535) (Staphylococcus sp.; strain GC 4535): 1 µg/mL; MIC Staphylococcus aureus-SMITH (GC 4536) (Staphylococcus sp.; strain GC 4536): 1 µg/mL
